This note sets out measurements from US9394297B2, “Amides as pim inhibitors” (AMGEN INC., priority 2012, dated 2016).

The IC50 is the concentration needed to halve the response being measured.

The target of one test is Pim-1 (Homo sapiens (Human), UniProt P11309). Briefly: Pim-Mn enzyme assay (HTRF, 384-well), Pim-1. It is filed as biochemical. The settings on record: read-out: Pim-1-Mn IC50 IP.
A further test addresses Pim-2 (Homo sapiens (Human), UniProt Q9P1W9). The experiment in a line: Pim-Mn enzyme assay (HTRF, 384-well), Pim-2. It is filed as biochemical. The settings on record: Pim-2 enzyme 0.5 pM, ATP 1.5 μM, BAD (S112) 0.5 μM, HTRF, 22-point curve; read-out: Pim-2-Mn IC50 IP. (In general: In TR-FRET formats the signal depends on donor and acceptor labels being close together.)
Test [1] has as its system KMS-12-BM myeloma cell line. Briefly: Pim KMS-12 cell assay (phospho-BAD S112 / total BAD, MSD). The settings on record: Homo sapiens, KMS-12-BM.
The mark [2] stands for this setting: Pim-1 enzyme 5 pM, ATP 1.5 μM, BAD (S112) 0.5 μM, HTRF, 22-point curve.
Setting [3] is: read-out: KMS-12-BM IC50 IP, KMS-12-BM cells, phospho-BAD (S112) vs total BAD, 1 hour 50 min with compound.

Like-named read-outs stand apart in the source and are kept apart here.

Pim-2, sequence (Q9P1W9 whole entry): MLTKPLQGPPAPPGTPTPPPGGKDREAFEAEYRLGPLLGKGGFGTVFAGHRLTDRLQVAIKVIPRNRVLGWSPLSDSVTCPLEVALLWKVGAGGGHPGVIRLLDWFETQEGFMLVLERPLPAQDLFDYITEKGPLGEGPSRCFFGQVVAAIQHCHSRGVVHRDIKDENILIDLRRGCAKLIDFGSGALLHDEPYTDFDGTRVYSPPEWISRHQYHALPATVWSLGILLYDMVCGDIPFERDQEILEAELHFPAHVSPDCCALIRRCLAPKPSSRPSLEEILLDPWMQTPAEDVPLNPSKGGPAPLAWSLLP
Pim-1, sequence (P11309 whole entry): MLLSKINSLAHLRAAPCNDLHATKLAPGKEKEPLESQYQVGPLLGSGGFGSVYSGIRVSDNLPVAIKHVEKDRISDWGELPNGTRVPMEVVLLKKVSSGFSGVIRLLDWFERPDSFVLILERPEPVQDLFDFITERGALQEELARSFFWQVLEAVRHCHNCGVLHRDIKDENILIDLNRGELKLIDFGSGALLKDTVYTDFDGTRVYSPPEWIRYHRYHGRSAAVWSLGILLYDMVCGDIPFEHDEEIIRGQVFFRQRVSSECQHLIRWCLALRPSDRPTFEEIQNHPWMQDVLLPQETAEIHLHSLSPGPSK

Regarding `CCNc1nc2c(-c3cc4c([nH]3)CCNC4=O)cccc2nc1C` [Example 69, 2-(3-(ethylamino)-2-methyl-5-quinoxalinyl)-1,5,6,7-tetrahydro-4H-pyrrolo[3,2-c]pyridin-4-one], the IC50 came to 3.4 nM on Pim-1 (setting [2]), 1.7 nM at Pim-2 and 223 nM in test [1] (read-out: KMS-12-BM IC50 IP).

Consider `Cc1nc2cccc(-c3cc4c([nH]3)CCNC4=O)c2nc1NCC(C)(C)N` [Example 70, 2-(3-((2-amino-2-methylpropyl)amino)-2-methyl-5-quinoxalinyl)-1,5,6,7-tetrahydro-4H-pyrrolo[3,2-c]pyridin-4-one], for which the values for the IC50 (at Pim-1 (setting [2]); on Pim-2; in test [1] (setting [3])) were 4.3 nM, 6.3 nM and 2910 nM, respectively.

Turning to `Cc1nc2cccc(-c3cc4c([nH]3)CCNC4=O)c2nc1NC1CC(O)C1` (stereo not drawn) [Example 72, 2-(3-((3-hydroxycyclobutyl)amino)-2-methyl-5-quinoxalinyl)-1,5,6,7-tetrahydro-4H-pyrrolo[3,2-c]pyridin-4-one], the IC50 at Pim-1 (setting [2]) came out at 3.1 nM; at Pim-2 it was 1.9 nM; in test [1] (setting [3]) it was 713 nM.

In the case of `Cc1nc2cccc(-c3cc4c([nH]3)CCNC4=O)c2nc1N[C@@H]1CCCNC1` [Example 75, 2-(2-methyl-3-((3R)-3-piperidinylamino)-5-quinoxalinyl)-1,5,6,7-tetrahydro-4H-pyrrolo[3,2-c]pyridin-4-one], the IC50 on Pim-1 (setting [2]) was determined as 0.6 nM; at Pim-2, 1.2 nM; in test [1] (setting [3]), 892 nM.

As to `Cc1nc2cccc(-c3cc4c([nH]3)CCNC4=O)c2nc1N[C@H]1CCCNC1` [Example 76, (S)-2-(2-methyl-3-(piperidin-3-ylamino)quinoxalin-5-yl)-6,7-dihydro-1H-pyrrolo[3,2-c]pyridin-4(5H)-one], the IC50 at Pim-1 (setting [2]) was found to be 8.1 nM; at Pim-2, 27 nM; in test [1] (setting [3]), 6130 nM.

Turning to `Cc1nc2cccc(-c3cc4c([nH]3)C3(CC3)CNC4=O)c2nc1NC1CC1` [Example 77, 2′-(3-(cyclopropylamino)-2-methyl-5-quinoxalinyl)-5′,6′-dihydrospiro[cyclopropane-1,7′-pyrrolo[3,2-c]pyridin]-4′(1′H)-one], the values for the IC50 (at Pim-1 (setting [2]); on Pim-2; in test [1] (read-out: KMS-12-BM IC50 IP)) were 1.6 nM, 3.8 nM and 494 nM, respectively.

In the case of `O=C1NCCc2[nH]c(-c3cccc4ccc(NC5CC5)nc34)cc21` [Example 99, 2-(2-(cyclopropylamino)quinolin-8-yl)-6,7-dihydro-1H-pyrrolo[3,2-c]pyridin-4(5H)-one], the IC50 came to 1.1 nM at Pim-1 (setting [2]), 7 nM on Pim-2 and 723 nM in test [1] (setting [3]).

Take `Cc1nc2cccc(-c3cc4n(c3)CCNC4=O)c2nc1NC1(C)CC1` [Example 100, 7-(2-methyl-3-((1-methylcyclopropyl)amino)quinoxalin-5-yl)-3,4-dihydropyrrolo[1,2-a]pyrazin-1(2H)-one 2,2,2-trifluoroacetate]: the IC50 came to 1.34 nM at Pim-1 (setting [2]), 0.961 nM on Pim-2 and 144 nM in test [1] (setting [3]).

On to `Cc1nc2cccc(-c3cc4c([nH]3)CCNC4=O)c2nc1NCC(C)(C)O` [Example 148, 2-(3-((2-hydroxy-2-methylpropyl)amino)-2-methylquinoxalin-5-yl)-6,7-dihydro-1H-pyrrolo[3,2-c]pyridin-4(5H)-one], for which the IC50 at Pim-1 (setting [2]) was determined as 8 nM; on Pim-2 it was 8.7 nM; in test [1] (setting [3]) it was 420 nM.

Turning to `Cc1nc2cccc(-c3cc4c([nH]3)CCNC4=O)c2nc1NC1(C)CCCCC1` [Example 155, 2-(2-methyl-3-((1-methylcyclohexyl)amino)quinoxalin-5-yl)-6,7-dihydro-1H-pyrrolo[3,2-c]pyridin-4(5H)-one], the IC50 on Pim-1 amounted to 0.7 nM; on Pim-2, 1.5 nM; in test [1] (setting [3]), 292 nM.

For `CC(C)(C)Nc1cnc2cccc(-c3cc4n(c3)CCNC4=O)c2n1` [Example 173, 7-(3-(tert-butylamino)quinoxalin-5-yl)-3,4-dihydropyrrolo[1,2-a]pyrazin-1(2H)-one], the results for the IC50 (on Pim-1 (setting [2]); at Pim-2; in test [1] (setting [3])) were 1.3 nM, 1.4 nM and 181 nM, respectively.

On to `Cc1nc2cccc(-c3cc4n(c3)CCNC4=O)c2nc1NC(C)(C)C` [Example 174, 7-(3-(tert-butylamino)-2-methylquinoxalin-5-yl)-3,4-dihydropyrrolo[1,2-a]pyrazin-1(2H)-one], for which the IC50 at Pim-1 (setting [2]) came to 5.9 nM; on Pim-2 it was 3.5 nM; in test [1] (setting [3]), 336 nM.

Regarding `Cc1nc2cccc(-c3cc4c([nH]3)CCNC4=O)c2nc1NC1(C)CC1` [Example 202, 2-(2-methyl-3-((1-methylcyclopropyl)amino)quinoxalin-5-yl)-6,7-dihydro-1H-pyrrolo[3,2-c]pyridin-4(5H)-one], the IC50 at Pim-1 (setting [2]) came to 0.3 nM; on Pim-2, 0.3 nM; in test [1] (setting [3]), 41.3 nM.

Take `Cc1nc2cccc(-c3cc4c([nH]3)CCNC4=O)c2nc1NC1(C)CCOCC1` [Example 203, 2-(2-methyl-3-((4-methyltetrahydro-2H-pyran-4-yl)amino)quinoxalin-5-yl)-6,7-dihydro-1H-pyrrolo[3,2-c]pyridin-4(5H)-one]: the IC50 on Pim-1 (setting [2]) amounted to 1.2 nM; at Pim-2 it was 5.6 nM; in test [1] (setting [3]), 232 nM.

As to `CC(C)(C)Nc1cnc2cccc(-c3cc4c([nH]3)CCNC4=O)c2n1` [Example 210, 2-(3-(tert-butylamino)quinoxalin-5-yl)-6,7-dihydro-1H-pyrrolo[3,2-c]pyridin-4(5H)-one], the results for the IC50 (at Pim-1 (setting [2]); at Pim-2; in test [1] (setting [3])) were 0.2 nM, 0.3 nM and 60.1 nM, respectively.

As to `CC1(Nc2cnc3cccc(-c4cc5c([nH]4)CCNC5=O)c3n2)CC1` [Example 211, 2-(3-((1-methylcyclopropyl)amino)quinoxalin-5-yl)-6,7-dihydro-1H-pyrrolo[3,2-c]pyridin-4(5H)-one], the IC50 on Pim-1 (setting [2]) is 0.2 nM; at Pim-2 it was 0.3 nM; in test [1] (setting [3]), 49.7 nM.

In the case of `CC1(C)CCCCN1c1cnc2cccc(-c3cc4c([nH]3)CCNC4=O)c2n1` [Example 212, 2-(3-(2,2-dimethylpiperidin-1-yl)quinoxalin-5-yl)-6,7-dihydro-1H-pyrrolo[3,2-c]pyridin-4(5H)-one], the IC50 at Pim-1 (setting [2]) was determined as 1.3 nM; on Pim-2, 2.3 nM; in test [1] (setting [3]) it was 538 nM.

`CC1(C)COCCN1c1cnc2cccc(-c3cc4c([nH]3)CCNC4=O)c2n1` [Example 213, 2-(3-(3,3-dimethylmorpholino)quinoxalin-5-yl)-6,7-dihydro-1H-pyrrolo[3,2-c]pyridin-4(5H)-one]: the IC50 on Pim-1 stood at 1.6 nM; at Pim-2, 3.2 nM; in test [1] (setting [3]), 227 nM.

On to `CC1(C)CN(c2cnc3cccc(-c4cc5c([nH]4)CCNC5=O)c3n2)CCN1` [Example 214, 2-(3-(3,3-dimethylpiperazin-1-yl)quinoxalin-5-yl)-6,7-dihydro-1H-pyrrolo[3,2-c]pyridin-4(5H)-one], for which the IC50 on Pim-1 (setting [2]) is 4.7 nM; on Pim-2 it was 58 nM; in test [1] (setting [3]), 9870 nM.

Turning to `CN(c1cnc2cccc(-c3cc4c([nH]3)CCNC4=O)c2n1)C(C)(C)C` [Example 215, 2-(3-(tert-butyl(methyl)amino)quinoxalin-5-yl)-6,7-dihydro-1H-pyrrolo[3,2-c]pyridin-4(5H)-one], the IC50 on Pim-1 (setting [2]) was 0.6 nM; at Pim-2, 0.7 nM; in test [1] (read-out: KMS-12-BM IC50 IP), 153 nM.
